Substitutions are numbered along the chain they refer to. Like-named read-outs stand apart in the source and are kept apart here.
What was measured:
CYP1A2 = CYP1A2 (Homo sapiens, UniProt P05177); experiment: Inhibition of CYP1A2; details: 50 μM phenacetin
CYP2C19 [1] = target: T1, CYP2C19 (Homo sapiens, UniProt P33261); details: fraction of substrate metabolized by the inhibited CYP pathway (CYP2C19); cited from earlier work
CYP2C9 [2] = target: T2, CYP2C9 (Homo sapiens, UniProt P11712); details: fraction of substrate metabolized by the inhibited CYP pathway (CYP2C9); cited from earlier work
CYP2C9 [3] = target: T2, CYP2C9; details: AUCI/AUC with multiple doses of efavirenz (steady state Cmax); CYP2C9 substrates
CYP2B6 [4] = details: cited from earlier work
CYP2C19 [5] = target: T1, CYP2C19; experiment: Inhibition of CYP2C19; assay type: in vitro ADME
[6] = cited from earlier work
expressed CYP2B6 [7] = target: T3, expressed CYP2B6 (Homo sapiens, UniProt P20813); experiment: Inhibition of expressed CYP2B6; assay type: in vitro ADME; details: substrate bupropion
T3 sequence (P20813 1-491): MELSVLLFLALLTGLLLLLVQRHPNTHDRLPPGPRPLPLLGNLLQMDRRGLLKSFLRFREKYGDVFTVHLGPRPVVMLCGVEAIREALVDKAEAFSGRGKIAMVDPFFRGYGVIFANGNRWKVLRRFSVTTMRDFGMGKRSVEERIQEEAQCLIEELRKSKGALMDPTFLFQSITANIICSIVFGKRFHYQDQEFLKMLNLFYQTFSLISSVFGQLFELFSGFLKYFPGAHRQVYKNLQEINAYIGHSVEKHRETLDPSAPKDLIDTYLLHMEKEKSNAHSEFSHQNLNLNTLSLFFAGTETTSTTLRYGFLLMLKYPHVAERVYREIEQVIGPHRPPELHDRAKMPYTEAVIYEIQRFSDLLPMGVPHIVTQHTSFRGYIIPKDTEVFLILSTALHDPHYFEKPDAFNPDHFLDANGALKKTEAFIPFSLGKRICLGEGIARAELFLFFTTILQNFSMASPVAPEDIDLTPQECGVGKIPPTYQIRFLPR

[8] = Efavirenz plasma pharmacokinetics; assay type: in vivo; details: human, po, 600 mg
CYP2D6 = CYP2D6 (Homo sapiens, UniProt P10635); experiment: Inhibition of CYP2D6; assay type: in vitro ADME; details: pooled human liver microsomes, pH 7.4, probe dextromethorphan (O-demethylation)
CYP2C9 [9] = target: T2, CYP2C9; details: in vitro study; cited from earlier work
[10] = test system: CYP isoforms (eight major CYPs except for CYP2B6); experiment: Time-dependent inhibition of CYP isoforms in pooled HLMs; assay type: in vitro ADME, human; details: 50 μM efavirenz
CYP2A6 = target: T4, CYP2A6 (Homo sapiens, UniProt P11509); experiment: Inhibition of CYP2A6; assay type: in vitro ADME; details: pooled human liver microsomes, pH 7.4, probe coumarin (7-hydroxylation)
T4 sequence (P11509 1-494): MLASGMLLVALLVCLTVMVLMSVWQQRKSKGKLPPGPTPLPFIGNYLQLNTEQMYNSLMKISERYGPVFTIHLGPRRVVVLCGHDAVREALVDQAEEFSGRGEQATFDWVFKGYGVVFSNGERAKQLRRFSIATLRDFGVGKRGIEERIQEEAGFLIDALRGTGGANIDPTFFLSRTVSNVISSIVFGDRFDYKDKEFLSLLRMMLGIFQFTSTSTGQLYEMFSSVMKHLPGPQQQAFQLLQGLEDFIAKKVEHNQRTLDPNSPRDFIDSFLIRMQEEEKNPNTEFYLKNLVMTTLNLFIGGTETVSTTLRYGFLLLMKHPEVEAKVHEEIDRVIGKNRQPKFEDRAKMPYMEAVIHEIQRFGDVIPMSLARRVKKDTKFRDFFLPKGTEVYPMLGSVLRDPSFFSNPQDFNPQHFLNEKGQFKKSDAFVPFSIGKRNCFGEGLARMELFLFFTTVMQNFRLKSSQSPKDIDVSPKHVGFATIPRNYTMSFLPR

UGT2B7 = details: in vitro; cited from earlier work
CYP3A = CYP3A (Homo sapiens, UniProt P08684); experiment: Inhibition of CYP3A; assay type: in vitro ADME; details: pooled human liver microsomes, pH 7.4, probe testosterone (6-β hydroxylation), 10 μM, inhibition of CYP3A activity, 50 μM efavirenz, pooled HLMs, 10 μM testosterone
CYP2B6 [11] = target: T5, CYP2B6 (Homo sapiens, UniProt P20813); details: substrate bupropion
T5 sequence (P20813 1-491): T3 sequence (P20813 1-491)

expressed CYP2C8 = target: T6, expressed CYP2C8 (Homo sapiens, UniProt P10632); experiment: Inhibition of expressed CYP2C8; assay type: in vitro ADME
T6 sequence (P10632 1-490): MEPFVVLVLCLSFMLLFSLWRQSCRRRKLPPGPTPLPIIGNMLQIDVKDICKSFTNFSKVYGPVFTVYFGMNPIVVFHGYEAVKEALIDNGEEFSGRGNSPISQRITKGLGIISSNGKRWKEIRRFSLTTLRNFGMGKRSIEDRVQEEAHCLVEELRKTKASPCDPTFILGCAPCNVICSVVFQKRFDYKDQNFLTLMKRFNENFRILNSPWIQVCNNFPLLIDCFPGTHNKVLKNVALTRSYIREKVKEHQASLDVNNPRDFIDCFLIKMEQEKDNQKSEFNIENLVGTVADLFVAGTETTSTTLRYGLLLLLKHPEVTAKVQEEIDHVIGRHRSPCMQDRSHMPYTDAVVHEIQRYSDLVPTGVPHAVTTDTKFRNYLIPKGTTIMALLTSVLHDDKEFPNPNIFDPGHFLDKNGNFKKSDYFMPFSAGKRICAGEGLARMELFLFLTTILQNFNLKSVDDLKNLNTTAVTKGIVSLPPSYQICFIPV

CYP2C8 [12] = details: expressed CYPs; cited from earlier work
expressed CYP2B6 [13] = details: cited from earlier work
CYP2C8 [14] = target: T7, CYP2C8 (Homo sapiens, UniProt P10632); experiment: Inhibition of CYP2C8; details: pooled HLMs; substrate amodiaquine
T7 sequence (P10632 1-490): T6 sequence (P10632 1-490)

CYP2C8 [15] = target: T8, CYP2C8 (Homo sapiens, UniProt P10632, K399R/R139K); experiment: Inhibition of CYP2C8
T8 sequence (P10632 1-490 R139K/K399R): T6 sequence (P10632 1-490) with R139K, K399R

CYP2C8 [16] = target: T7, CYP2C8; experiment: in vitro; details: microsomes, pH 7.4
CYP2C9 [17] = target: T2, CYP2C9; experiment: Inhibition of CYP2C9; assay type: in vitro ADME

T2 sequence (P11712 whole entry): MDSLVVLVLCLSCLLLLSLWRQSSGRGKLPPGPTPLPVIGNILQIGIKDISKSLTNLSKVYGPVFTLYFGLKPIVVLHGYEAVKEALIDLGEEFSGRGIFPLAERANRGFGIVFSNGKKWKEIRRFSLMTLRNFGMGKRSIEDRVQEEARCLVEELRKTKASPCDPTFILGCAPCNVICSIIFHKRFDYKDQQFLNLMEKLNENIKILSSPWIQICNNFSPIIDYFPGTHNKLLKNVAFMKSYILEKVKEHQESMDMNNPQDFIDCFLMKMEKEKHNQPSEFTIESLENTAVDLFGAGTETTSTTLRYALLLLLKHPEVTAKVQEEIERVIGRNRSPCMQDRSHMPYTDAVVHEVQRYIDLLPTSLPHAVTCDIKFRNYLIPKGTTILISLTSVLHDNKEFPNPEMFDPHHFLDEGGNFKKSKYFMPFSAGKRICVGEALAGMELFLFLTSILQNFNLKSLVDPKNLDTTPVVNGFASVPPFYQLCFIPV
T1 sequence (P33261 whole entry): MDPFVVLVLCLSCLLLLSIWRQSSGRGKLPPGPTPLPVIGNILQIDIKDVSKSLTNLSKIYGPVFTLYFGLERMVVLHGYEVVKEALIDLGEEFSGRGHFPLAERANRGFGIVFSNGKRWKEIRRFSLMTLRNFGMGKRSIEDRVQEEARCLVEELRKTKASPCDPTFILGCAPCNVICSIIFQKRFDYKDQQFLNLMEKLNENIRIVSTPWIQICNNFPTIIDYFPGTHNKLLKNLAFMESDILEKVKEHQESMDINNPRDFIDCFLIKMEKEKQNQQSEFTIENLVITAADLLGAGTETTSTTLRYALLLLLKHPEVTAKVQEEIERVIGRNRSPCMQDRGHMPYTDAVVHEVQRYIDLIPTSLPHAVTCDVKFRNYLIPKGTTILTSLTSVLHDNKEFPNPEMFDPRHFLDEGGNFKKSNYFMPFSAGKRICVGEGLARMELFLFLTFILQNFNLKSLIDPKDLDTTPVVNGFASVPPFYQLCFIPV
CYP2D6, sequence (P10635 whole entry): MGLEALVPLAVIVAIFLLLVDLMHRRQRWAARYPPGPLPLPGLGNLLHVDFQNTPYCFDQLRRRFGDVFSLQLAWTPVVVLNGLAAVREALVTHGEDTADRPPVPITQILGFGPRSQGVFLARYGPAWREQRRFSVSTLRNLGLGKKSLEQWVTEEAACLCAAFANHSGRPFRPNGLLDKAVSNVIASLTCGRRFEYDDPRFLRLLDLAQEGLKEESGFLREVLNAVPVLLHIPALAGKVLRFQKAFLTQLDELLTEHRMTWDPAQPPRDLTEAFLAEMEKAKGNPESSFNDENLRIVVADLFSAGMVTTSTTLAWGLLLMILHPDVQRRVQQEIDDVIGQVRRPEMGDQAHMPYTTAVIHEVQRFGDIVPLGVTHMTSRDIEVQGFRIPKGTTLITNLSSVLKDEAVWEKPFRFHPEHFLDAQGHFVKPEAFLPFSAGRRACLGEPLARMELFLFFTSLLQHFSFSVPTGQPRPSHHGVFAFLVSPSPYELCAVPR
CYP1A2, sequence (P05177 whole entry): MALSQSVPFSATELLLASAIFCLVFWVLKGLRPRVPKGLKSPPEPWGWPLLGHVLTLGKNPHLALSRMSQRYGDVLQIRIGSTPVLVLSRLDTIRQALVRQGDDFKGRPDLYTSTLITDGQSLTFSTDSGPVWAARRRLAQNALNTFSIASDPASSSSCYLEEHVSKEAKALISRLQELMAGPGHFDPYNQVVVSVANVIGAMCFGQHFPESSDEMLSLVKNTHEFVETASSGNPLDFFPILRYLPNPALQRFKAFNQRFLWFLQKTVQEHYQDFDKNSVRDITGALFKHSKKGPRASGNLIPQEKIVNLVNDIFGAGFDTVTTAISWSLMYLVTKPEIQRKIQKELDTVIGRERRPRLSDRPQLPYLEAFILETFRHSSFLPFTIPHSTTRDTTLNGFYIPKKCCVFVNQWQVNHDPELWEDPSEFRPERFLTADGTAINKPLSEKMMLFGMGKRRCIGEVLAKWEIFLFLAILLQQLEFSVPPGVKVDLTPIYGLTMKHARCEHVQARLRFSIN
CYP3A, sequence (P08684 2-503): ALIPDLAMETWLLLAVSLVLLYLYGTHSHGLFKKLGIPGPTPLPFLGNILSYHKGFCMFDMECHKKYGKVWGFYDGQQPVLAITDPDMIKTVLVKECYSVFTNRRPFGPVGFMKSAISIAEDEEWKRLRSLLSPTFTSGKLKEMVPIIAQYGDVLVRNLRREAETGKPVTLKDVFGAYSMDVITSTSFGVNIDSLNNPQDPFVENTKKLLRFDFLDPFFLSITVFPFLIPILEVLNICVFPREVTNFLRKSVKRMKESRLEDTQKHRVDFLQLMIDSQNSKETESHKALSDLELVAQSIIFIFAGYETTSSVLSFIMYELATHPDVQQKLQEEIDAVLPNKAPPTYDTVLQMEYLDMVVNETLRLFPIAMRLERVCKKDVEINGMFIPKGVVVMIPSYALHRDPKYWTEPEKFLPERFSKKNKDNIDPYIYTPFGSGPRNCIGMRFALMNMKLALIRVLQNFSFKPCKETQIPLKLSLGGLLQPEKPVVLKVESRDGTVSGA

In the case of `O=C1Nc2c(O)cc(Cl)cc2[C@@](C#CC2CC2)(C(F)(F)F)O1` [8-hydroxyefavirenz], the “inhibition of CYP1A2” value (CYP1A2; 8-hydroxyefavirenz up to 10 μM (0.5 to 10 μM), pooled HLMs 1 mg/ml, 30 min) is reported as ~ 20%.
In the case of `COc1ccc2[nH]c([S+]([O-])Cc3ncc(C)c(OC)c3C)nc2c1` (stereo not shown) [Omeprazole], the fm (CYP2C19 [1]) is given as 0.87 [26]).
For `O=C1NC(=O)C(c2ccccc2)(c2ccccc2)N1` [Phenytoin], the fm (CYP2C9 [2]) is listed as 0.90 [57]) and the “Predicted AUC Ratio” value (CYP2C9 [3]) is listed as 1.7 -2.0.
For `CC(=O)C[C@@H](c1ccccc1)c1c(O)c2ccccc2oc1=O` [S-Warfarin], the “Predicted AUC Ratio” value (CYP2C9 [3]) was 1.7 -2.0.
For `CC(NC(C)(C)C)C(=O)c1cccc(Cl)c1` (stereo not shown) [bupropion], the Km (CYP2B6 [4]; bupropion as CYP2B6 substrate) is given as 90 to 130 µM.
For `O=C1Nc2ccc(Cl)cc2[C@@](C#CC2CC2)(C(F)(F)F)O1` [efavirenz, Efavirenz], the Ki (CYP2C19 [5]) is given as 21.3 ± 2.57 µM, the inhibition model (CYP2C19 [5]; pooled HLMs, substrate S-mephenytoin) is given as “competitive” and the “Ka absorption rate constant” value [6] is given as 0.3 h⁻¹. For the same compound, the inhibition model (expressed CYP2B6 [7]) was “competitive”, the Cmax [8] was 4.6 to 8.4 µM and the inhibition at 10 μM (CYP2D6) was under 10%. For the same compound, the inhibition at 50 μM (CYP2D6; 10 μM) was under 10%, the IC50 (CYP2C9 [9]) was about 15 µM and the Km (CYP2B6 [4]) was 13 to 20 µM. For the same compound, the “time-dependent inhibition of CYP activity” value ([10]; preincubation for 30 min) was “only marginally inhibited”, the time-dependent inactivation ([10]; shorter preincubation times (5-15 min)) was “did not show any indication of time-dependent inactivation” and the “inhibition of CYP1A2 activity” value (CYP1A2; efavirenz 10 and 50 μM, pooled HLMs) was “did not indicate that efavirenz inhibits CYP1A2 activity”. For the same compound, the inhibition at 10 μM (CYP2A6) was under 10%, the inhibition at 50 μM (CYP2A6; 10 μM) was under 10% and the “inhibition of UGT2B7” value (UGT2B7) was “moderate inhibitor”. The inhibition at 50 μM (CYP3A) was over 20%, the inhibition model (CYP2B6 [11]; CMV negative HLMs) was “competitive” and the inhibition model (CYP2B6 [11]; pooled HLMs) was “competitive”. For the same compound, the Ki (expressed CYP2C8) was 6.05 ± 2.86 µM, the inhibition model (expressed CYP2C8; expressed CYP2C8, substrate amodiaquine) was “competitive” and the IC50 (CYP2C8 [12]) was 4 µM. For the same compound, the “KI value (time-dependent inhibition)” value (expressed CYP2B6 [13]) was 30 µM, the inhibition model (CYP2C8 [14]) was “competitive” and the Ki (CYP2C8 [15]) was 4.8 ± 0.35 µM. The inhibition model (CYP2C8 [15]; HLMs with CYP2C8*3/*3, substrate amodiaquine) was “competitive”, the Ki (CYP2C8 [16]) was 4.78 ± 2.24 µM and the Ki (CYP2C9 [17]) was 19.5 ± 2.78 µM. For the same compound, the inhibition model (CYP2C9 [17]; pooled HLMs, substrate tolbutamide) was “non-competitive”.
